“And” between values parts separate entries of the source, which are not always exact repeats. Equal values may be shown once. Read-outs that look alike come from different tables or passages of the source. Values belong to the compound of their own block, whether it stands above or below them. Starred links: 1 amine or outer side, 2 acyl side, 3 side chain; linkers in the order of their positions; H or OH if unused. Non-standard residues stand in square brackets, D forms with d. Residues, ends and D or L forms follow the SMILES beside them. X5 = O=C([C@H](CNS(=O)(=O)O)N[*:1])[*:2]; X4 = O=C([C@H](CCCB(O)O)N[*:1])[*:2]
Assays:
[1] = biological target: pp60^c-src (Homo sapiens, UniProt P12931); test: Cellular Mimetic Src assay (RR-SRC phosphorylation); details: for inhibition at 500 µM: read-out: % Inhibition of 2 mM RR-src at Inhibitor Concentration (500 μM)
[2] = biological target: EGFRTK (Homo sapiens, UniProt P00533); test: EGFRTK inhibition; type: biochemical; details: % inhibition at 10 micromolar compound
Excerpt: (§1) Blanks for a particular enzyme indicate that inhibition was not found.

[3] = biological target: T1, PKA (Homo sapiens, UniProt P17612); test: Literature Mimetic PKA assay; type: biochemical; details: for inhibition at 1000 µM: 1000 μM inhibitor, L
Excerpt: (§2) The boronic acid inhibitors 21-24 have two Arg's in their sequence also and therefore will bind to the phosphocellulose paper in addition to Kemptamide (although not as consistently or completely due to one less positive charge). Consequently, when analyzed as inhibitors, the amount of phosphorylated Kemptamide produced was not only counted, but also the amount of phosphorylated inhibitor simultaneously produced (e.g. see 26 below). The net result is that distorted IC50 curves are obtained which show net “stimulation” at higher inhibitor concentrations in some cases. […] The underlying substrate behavior of these “inhibitors” makes an accurate measurement of their inhibition potency impossible with the current assay. However, it does appear from the data that homologating the boronic acid functionality out with only CH2 groups (homologations with boronic acid non-peptide Src inhibitors may also be carried out) decreases the binding affinity and ability to function as a substrate.

[4] = biological target: T1, PKA; test: Cellular Mimetic PKA assay; type: biochemical
Excerpt: as §2
Phosphorylated Kemptamide is SEQ. ID. No. 6. Phosphorylated 22 is SEQ. ID. No. 4. […] The graphs show their respective rates and levels of phosphorylation with the typical loss of initial velocity kinetics with time (due to substrate depletion and end product inhibition), analogous to a standard L-Ser substrate such as Kemptamide. The comparison of 21 to 22 shown was done in the same assay run, at identical boronic acid substrate concentrations, and with identical Cellular Mimetic assay solutions so that the cpm's could be directly compared. […] That the boronic acid moiety would be phosphorylated by PKA was surprising, but it is even more surprising that the phosphonic-boronic acid mixed anhydride produced (e.g. 26) was stable enough to survive the pH 7.2/37° C. assay incubation and then be isolated by binding to phosphocellulose paper after acid quenching of the reaction with 10% TCA and washing the phosphocellulose paper with 25 mM phosphoric acid (3×). An STN substructure search was run on mixed anhydrides of phosphoric and boronic acids and found only three references to experiments and theoretical calculations for the analogous putative (but not proven) anhydride formed from boric acid and phosphoric acid as a solid surface impregnated catalyst for the partial oxidation of ethane to acetaldehyde at 823° K. (Zhanpeisov & Otsuka, 1992, Otsuka et al., 1992, Murakami et al., 1990). However, this highly unusual anhydride has never before been synthesized free of a solid surface, isolated, or characterized. Thus, this is a novel enzymatic reaction and chemical entity with interesting possibilities for protein kinase inhibitor designs.

[5] = biological target: T2, PTP-1B (Homo sapiens, UniProt P18031); test: PTP-1B inhibition; type: biochemical; details: % inhibition at 10 micromolar compound
T2 sequence (P18031 1-435): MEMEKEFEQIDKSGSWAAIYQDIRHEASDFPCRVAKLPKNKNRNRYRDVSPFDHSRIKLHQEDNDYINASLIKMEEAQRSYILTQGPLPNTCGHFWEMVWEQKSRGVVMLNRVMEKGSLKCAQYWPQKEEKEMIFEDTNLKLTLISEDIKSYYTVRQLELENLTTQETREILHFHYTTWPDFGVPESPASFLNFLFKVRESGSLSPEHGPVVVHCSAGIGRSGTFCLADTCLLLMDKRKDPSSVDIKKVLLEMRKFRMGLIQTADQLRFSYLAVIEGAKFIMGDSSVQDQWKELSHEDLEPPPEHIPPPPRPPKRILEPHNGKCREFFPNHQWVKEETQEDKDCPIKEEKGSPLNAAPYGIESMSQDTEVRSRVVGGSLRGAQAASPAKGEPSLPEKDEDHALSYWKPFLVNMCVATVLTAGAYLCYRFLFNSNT
Excerpt: as §1

[6] = read-out: % Inhibition of 2 mM RR-src at Inhibitor Concentration (100 μM)

pp60^c-src, sequence (P12931 whole entry): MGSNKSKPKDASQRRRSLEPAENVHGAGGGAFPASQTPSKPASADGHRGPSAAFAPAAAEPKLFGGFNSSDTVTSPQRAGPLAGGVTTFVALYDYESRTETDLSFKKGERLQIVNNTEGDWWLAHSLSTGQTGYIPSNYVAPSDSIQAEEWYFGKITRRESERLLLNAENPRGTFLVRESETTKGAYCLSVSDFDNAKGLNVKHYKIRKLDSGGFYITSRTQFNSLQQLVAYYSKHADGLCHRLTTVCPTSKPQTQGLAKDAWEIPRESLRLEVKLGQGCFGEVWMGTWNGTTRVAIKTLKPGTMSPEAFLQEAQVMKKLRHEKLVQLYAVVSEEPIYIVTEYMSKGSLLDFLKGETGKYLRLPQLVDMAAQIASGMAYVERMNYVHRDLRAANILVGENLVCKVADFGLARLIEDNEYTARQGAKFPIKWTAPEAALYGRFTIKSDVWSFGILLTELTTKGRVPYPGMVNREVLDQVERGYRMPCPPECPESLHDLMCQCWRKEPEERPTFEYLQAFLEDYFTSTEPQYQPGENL
EGFRTK, sequence (P00533 25-1210): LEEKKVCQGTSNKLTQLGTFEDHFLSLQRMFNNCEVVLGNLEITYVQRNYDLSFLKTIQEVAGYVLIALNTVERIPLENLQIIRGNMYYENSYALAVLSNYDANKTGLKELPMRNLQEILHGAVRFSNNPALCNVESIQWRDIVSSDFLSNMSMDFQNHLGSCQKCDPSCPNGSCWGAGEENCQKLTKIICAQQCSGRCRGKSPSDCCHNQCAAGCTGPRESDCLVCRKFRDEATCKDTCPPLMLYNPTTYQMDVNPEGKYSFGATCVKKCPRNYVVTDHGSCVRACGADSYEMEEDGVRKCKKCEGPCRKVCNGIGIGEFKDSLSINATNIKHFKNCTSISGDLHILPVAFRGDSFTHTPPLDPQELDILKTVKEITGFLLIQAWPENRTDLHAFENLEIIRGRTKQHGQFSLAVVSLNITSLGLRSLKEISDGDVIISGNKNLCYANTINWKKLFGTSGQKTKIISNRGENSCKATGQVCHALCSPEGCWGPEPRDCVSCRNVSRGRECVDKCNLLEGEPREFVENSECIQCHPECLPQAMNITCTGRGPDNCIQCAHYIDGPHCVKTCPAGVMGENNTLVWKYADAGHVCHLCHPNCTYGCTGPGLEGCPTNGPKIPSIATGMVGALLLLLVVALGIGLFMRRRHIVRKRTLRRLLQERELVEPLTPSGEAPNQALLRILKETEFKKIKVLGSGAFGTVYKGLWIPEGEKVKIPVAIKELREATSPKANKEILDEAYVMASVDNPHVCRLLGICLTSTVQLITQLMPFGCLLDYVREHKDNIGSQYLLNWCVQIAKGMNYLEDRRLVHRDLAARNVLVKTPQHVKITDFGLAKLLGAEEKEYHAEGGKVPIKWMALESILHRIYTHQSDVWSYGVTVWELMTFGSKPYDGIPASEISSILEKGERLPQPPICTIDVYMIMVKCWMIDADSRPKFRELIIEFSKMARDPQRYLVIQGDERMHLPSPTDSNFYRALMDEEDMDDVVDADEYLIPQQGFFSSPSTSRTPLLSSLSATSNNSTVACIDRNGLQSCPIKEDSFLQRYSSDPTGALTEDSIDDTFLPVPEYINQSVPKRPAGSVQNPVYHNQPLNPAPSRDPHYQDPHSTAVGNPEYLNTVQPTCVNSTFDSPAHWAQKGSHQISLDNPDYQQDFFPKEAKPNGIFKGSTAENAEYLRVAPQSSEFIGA

SMILES: COc1cccc([C@H](C)NC(=O)c2cc3cc(F)ccc3[nH]2)c1 [Compound 1aa]
- EGFRTK @ 10 μm [2]: 12%

SMILES: Cc1ccccc1CNC(=O)c1cc2cc(F)ccc2[nH]1 [Compound 1ffff]
- EGFRTK @ 10 μm [2]: 12%

SMILES: O=C(NCc1ccc(OCc2ccccc2)c(O)c1)c1cc2cc(F)ccc2[nH]1 [Compound 1jjjj]
- PTP-1B @ 10 μm [5]: 15%

SMILES: O=C(NCc1cc(OCc2ccccc2)cc(OCc2ccccc2)c1)c1cc2cc(F)ccc2[nH]1 [Compound 1iiii]
- EGFRTK @ 10 μm [2]: 12%

SMILES: O=C(NCc1cc(O)cc(OCc2ccccc2)c1)c1cc2cc(F)ccc2[nH]1 [Compound 1dddd]
- PTP-1B @ 10 μm [5]: 16%

SMILES: O=C(NCc1ccccc1)c1cc2cc(F)ccc2[nH]1 [Compound 1bb]
- EGFRTK @ 10 μm [2]: 19%

SMILES: O=C(N[C@H](c1ccccc1)[C@H](O)c1ccccc1)c1cc2cc(F)ccc2[nH]1 [Compound 1cc]
- EGFRTK @ 10 μm [2]: 19%

SMILES: CC[C@H](C)[C@H](NC(=O)[C@H](CNS(=O)(=O)O)NC(=O)CNC(=O)[C@H](CCCNC(=N)N)NC(=O)[C@H](CCCNC(=N)N)NC(C)=O)C(N)=O [Compound 8] (Ac-RRG[X5]I-NH2)
- Ki ([3]; Ki, Literature Mimetic (L) conditions, pentapeptide PKA inhibitors): 0.16 µM

SMILES: OB(O)c1cccc(-c2ccccc2)c1
- inhibition at 100 µM [1, 6]: 14%

SMILES: COC(=O)c1cc2ccc(B(O)O)cc2cn1
- inhibition at 500 µM [1]: 13%

SMILES: O=C(NCc1ccc(O)c(O)c1)c1cc2cc(F)ccc2[nH]1 [Compound 1gggg]
- EGFRTK @ 10 μm [2]: 25%

SMILES: CCCOc1ccc(CNC(=O)c2cc3cc(F)ccc3[nH]2)cc1O [Compound 1nnnn]
- EGFRTK @ 10 μm [2]: 17%

SMILES: COC(=O)c1cc2cc(O)ccc2[nH]1
- inhibition at 500 µM [1]: 40%

Now from value to compound:

- IC50 [1]: 950 µM
- Ki ([1]; Ki, Table IV): ~554 µM and 554 µM
- inhibition at 100 µM [1, 6]: 13%
- inhibition at 1000 µM ([1]; read-out: % Inhibition of 2 mM RR-src at Inhibitor Concentration (1 mM)): 59%
SMILES: OB(O)c1ccc2ccccc2c1 [Compound 27, 2-naphthalene boronic acid]

- inhibition at 1000 µM ([3]; 0 h preincubation): 33%
- inhibition at 1000 µM ([3]; 4 h preincubation): 44%
- % sti (stimulation) ([4]; 2000 μM inhibitor, C, 0 h preincubation): 2000 μM 6% sti
- IC50 ([4]; IC50 μM (cond. C, 4 h preincubation), Cellular Mimetic, 4 h preincubation): 1730 µM
SMILES: CC[C@H](C)[C@H](NC(=O)[C@H](CCCB(O)O)NC(=O)CNC(=O)[C@H](CCCNC(=N)N)NC(=O)[C@H](CCCNC(=N)N)NC(C)=O)C(N)=O (Ac-RRG[X4]I-NH2)

- PTP-1B @ 10 μm [5]: 13%
SMILES: O=C(NCc1ccc(F)cc1)c1cc2cc(F)ccc2[nH]1 [Compound 1uuu]

- PTP-1B @ 10 μm [5]: 12%
SMILES: O=C(NCc1ccc(Cl)cc1Cl)c1cc2cc(F)ccc2[nH]1 [Compound 1ss]

- PTP-1B @ 10 μm [5]: 12%
SMILES: O=C(Nc1ccccc1CO)c1cc2cc(F)ccc2[nH]1 [Compound 1xxx]

- inhibition at 100 µM ([1]; read-out: % Inhibition of 2 mM RR-src at Inhibitor Concentration (100 μM), Table V, inhibitor 100 μM): 41%
SMILES: Oc1cc(O)cc(/C=C/c2ccc(O)c(O)c2)c1 [drawing 66, piceatannol, reference compound]

- EGFRTK @ 10 μm [2]: 18%
SMILES: O=C(NCCCCCCO)c1cc2cc(F)ccc2[nH]1 [Compound 1qqqq]

- inhibition at 100 µM ([1]; read-out: % Inhibition at 100 μM (std. dev.), Table IX, hydroxynaphthalene derivatives and published inhibitors): 41%
SMILES: Oc1cc(O)cc(/C=C/c2ccc(O)c(O)c2)c1 [Piceatannol, reference compound]

Source: US7772216B2, “Protein kinase and phosphatase inhibitors and methods for designing them” (The Research Foundation of State University of New York, priority 2001, dated 2010)
